From ChEMBL document CHEMBL1201862, “PubChem BioAssay data set” (2004)
Activity calls are given as the source filed them. For most assays here, no stated cut-off is given here; in the data, actives have a measured EC50 and inactives only a lower limit.

Experiments:
Aminopeptidase N = target: T1, Aminopeptidase N (Plasmodium falciparum FcB1/Columbia, UniProt O96935); experiment: P. falciparum M1AAP inhibitors, biochemical, fluorogenic H-Leu-NHMec substrate, 1536-well (AID 1445); design: species or system Plasmodium falciparum 3D7, 3D7
T1 sequence (O96935 whole entry): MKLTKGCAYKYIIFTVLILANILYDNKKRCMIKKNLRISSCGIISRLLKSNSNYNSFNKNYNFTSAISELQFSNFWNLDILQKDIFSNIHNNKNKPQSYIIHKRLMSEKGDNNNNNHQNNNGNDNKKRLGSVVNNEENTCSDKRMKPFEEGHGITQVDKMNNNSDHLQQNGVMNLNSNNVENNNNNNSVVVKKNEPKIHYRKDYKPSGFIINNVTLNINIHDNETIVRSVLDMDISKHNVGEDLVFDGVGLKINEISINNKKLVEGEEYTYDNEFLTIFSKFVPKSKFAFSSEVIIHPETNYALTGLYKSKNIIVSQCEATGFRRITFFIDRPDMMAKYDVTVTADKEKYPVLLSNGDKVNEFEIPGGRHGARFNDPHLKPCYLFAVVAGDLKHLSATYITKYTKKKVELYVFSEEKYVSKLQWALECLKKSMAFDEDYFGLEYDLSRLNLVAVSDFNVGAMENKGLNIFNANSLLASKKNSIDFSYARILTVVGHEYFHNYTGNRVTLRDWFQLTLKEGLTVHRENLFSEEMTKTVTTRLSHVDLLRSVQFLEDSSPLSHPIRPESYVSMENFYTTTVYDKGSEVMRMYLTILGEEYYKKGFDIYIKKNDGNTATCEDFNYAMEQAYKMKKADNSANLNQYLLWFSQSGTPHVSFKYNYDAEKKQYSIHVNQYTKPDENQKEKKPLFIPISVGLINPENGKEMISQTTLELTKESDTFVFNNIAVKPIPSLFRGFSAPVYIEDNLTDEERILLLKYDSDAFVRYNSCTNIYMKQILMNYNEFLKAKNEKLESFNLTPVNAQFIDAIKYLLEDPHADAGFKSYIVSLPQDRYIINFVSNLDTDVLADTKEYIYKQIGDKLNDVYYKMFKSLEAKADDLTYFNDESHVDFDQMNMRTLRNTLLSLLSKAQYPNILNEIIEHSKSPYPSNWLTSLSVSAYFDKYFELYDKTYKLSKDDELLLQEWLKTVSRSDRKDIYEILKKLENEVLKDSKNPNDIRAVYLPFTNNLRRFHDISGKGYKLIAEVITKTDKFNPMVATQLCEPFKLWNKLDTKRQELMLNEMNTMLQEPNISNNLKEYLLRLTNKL

[1] = target: Transitional endoplasmic reticulum ATPase (Homo sapiens, UniProt P55072); experiment: p97 ATPase inhibitors, dose response, biochemical (AID 1534)
Sequence of Transitional endoplasmic reticulum ATPase (Homo sapiens, UniProt P55072) (P55072 whole entry): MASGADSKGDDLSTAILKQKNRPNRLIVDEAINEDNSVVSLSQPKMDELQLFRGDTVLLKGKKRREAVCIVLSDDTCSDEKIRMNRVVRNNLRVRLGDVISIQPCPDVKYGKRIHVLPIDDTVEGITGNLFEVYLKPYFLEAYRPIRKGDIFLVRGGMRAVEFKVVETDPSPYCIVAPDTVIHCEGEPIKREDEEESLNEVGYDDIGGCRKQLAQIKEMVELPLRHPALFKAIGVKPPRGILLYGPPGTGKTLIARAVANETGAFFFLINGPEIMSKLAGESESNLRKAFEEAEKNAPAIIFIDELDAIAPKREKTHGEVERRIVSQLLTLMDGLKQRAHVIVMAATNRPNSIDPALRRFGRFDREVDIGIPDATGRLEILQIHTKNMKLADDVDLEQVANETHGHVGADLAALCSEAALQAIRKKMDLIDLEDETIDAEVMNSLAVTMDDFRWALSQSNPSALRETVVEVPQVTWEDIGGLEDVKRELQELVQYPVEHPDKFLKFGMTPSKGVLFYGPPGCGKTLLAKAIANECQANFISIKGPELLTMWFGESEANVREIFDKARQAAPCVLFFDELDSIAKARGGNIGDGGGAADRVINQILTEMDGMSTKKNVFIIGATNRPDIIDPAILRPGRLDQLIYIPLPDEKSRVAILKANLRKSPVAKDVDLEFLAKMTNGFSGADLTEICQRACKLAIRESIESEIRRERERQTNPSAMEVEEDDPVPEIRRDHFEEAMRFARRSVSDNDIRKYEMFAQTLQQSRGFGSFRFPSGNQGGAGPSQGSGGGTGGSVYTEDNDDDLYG

[2] = target: Transitional endoplasmic reticulum ATPase (Homo sapiens, UniProt P55072, C522A); experiment: C522A mutant p97 ATPase inhibitors, dose response, counter-screen for p97 inhibitor project, biochemical, luminescence (AID 1544)
Sequence of Transitional endoplasmic reticulum ATPase (Homo sapiens, UniProt P55072, C522A) (P55072 2-806 C522A limits assumed): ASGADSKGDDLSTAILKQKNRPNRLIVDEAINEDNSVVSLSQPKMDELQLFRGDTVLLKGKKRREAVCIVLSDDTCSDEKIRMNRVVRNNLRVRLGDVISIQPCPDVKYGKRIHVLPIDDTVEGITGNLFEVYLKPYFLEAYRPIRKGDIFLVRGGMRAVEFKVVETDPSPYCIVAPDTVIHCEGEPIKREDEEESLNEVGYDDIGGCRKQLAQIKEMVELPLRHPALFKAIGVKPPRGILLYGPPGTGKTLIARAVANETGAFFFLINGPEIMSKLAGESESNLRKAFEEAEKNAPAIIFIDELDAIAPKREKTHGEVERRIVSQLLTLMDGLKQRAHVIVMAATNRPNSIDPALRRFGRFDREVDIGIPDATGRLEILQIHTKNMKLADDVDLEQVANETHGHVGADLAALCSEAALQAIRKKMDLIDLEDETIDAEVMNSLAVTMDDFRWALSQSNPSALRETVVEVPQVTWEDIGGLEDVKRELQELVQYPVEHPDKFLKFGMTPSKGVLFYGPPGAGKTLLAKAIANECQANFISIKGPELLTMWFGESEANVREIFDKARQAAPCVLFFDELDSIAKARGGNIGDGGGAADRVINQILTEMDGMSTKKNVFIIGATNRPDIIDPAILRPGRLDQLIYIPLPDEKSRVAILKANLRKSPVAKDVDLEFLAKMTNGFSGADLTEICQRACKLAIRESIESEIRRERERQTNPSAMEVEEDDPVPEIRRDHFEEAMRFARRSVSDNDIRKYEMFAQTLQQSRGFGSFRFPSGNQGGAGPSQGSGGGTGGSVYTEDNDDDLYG

[3] = target: Signal transducer and activator of transcription 3 (Homo sapiens, UniProt P40763); experiment: STAT3 activators, late-stage profile, late-stage follow-up, cell-based, STAT1 reporter, BCL3 qPCR, cytotoxicity, panel member STAT3 Activation (AID 2049)
Sequence of Signal transducer and activator of transcription 3 (P40763 whole entry): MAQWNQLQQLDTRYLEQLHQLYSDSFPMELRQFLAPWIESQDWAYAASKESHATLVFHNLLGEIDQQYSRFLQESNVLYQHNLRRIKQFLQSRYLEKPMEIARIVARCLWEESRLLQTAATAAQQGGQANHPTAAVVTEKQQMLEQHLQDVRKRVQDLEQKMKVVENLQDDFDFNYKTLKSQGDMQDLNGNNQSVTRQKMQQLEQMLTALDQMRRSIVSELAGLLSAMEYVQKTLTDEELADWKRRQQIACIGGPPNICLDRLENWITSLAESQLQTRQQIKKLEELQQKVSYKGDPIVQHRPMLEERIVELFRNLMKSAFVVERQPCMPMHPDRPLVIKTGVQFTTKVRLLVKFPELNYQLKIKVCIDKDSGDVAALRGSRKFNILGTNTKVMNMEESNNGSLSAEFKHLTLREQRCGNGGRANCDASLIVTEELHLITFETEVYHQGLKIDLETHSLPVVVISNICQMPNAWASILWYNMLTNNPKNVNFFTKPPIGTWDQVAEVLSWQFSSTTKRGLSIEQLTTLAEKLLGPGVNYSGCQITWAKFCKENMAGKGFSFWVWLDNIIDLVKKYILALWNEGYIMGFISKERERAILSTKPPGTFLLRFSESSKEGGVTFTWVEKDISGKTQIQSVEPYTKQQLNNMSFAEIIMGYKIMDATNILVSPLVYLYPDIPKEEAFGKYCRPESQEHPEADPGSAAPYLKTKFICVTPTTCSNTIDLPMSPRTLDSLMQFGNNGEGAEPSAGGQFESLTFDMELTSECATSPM

[4] = C. albicans growth with fluconazole, confirmation, fluorescence, retest (AID 2467); type: functional, cell-based
[5] = inhibitors of SNCA 5'UTR-driven translation, confirmation, luminescence, H4 neuroglioblastoma cells, dose confirmation (AID 2454); type: functional, cell-based;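 further: H4 neuroglioblastoma cells carrying an alpha-synuclein 5'UTR luciferase reporter; potency for inhibition of the luciferase signal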
Streptococcus = experiment: Group A Streptococcus viability loss, dose response, counter-screen for streptokinase expression inhibitor project, luminescence, BacTiterGlo (AID 1915); type: functional, organism-based;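 further: potency for reduction of bacterial viability or growth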
[6] = target: ATP-dependent molecular chaperone HSP82 (Candida albicans (strain WO-1) (Yeast), UniProt C4YTQ8); experiment: loss of DOC-induced GRE-beta-galactosidase reporter signal, dose response, Hsp90 inhibitor project, S. cerevisiae, luminescence (AID 2400); type: functional, cell-based;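 further: beta-galactosidase luminescence from glucocorticoid response element reporter as proxy for Hsp90 function; inhibitor potency where signal loss means Hsp90 inhibition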
Sequence of ATP-dependent molecular chaperone HSP82 (C4YTQ8 whole entry): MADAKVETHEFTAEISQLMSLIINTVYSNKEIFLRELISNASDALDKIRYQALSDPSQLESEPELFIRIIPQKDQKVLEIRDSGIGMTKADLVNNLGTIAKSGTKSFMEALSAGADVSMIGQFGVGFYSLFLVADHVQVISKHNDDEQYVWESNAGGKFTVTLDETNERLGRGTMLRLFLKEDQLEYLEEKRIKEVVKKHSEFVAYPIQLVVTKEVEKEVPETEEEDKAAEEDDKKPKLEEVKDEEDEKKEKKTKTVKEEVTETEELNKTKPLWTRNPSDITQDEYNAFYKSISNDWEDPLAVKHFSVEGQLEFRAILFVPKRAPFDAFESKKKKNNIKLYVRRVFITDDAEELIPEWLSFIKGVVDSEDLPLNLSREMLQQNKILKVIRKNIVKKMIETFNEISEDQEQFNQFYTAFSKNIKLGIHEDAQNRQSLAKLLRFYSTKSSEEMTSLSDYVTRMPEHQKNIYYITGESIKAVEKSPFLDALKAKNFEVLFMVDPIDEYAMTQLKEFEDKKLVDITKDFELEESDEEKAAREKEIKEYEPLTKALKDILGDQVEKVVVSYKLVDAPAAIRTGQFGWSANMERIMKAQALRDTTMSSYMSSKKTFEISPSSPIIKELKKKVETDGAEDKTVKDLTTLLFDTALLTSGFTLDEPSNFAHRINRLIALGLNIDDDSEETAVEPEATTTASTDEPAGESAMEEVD

cells = type: functional, cell-based
[7] = inhibitors of SNCA 5'UTR-driven reporter translation, confirmation, H4 neuroglioma cells, luminescence (AID 1988); type: functional, cell-based
[8] = target: G-protein coupled receptor 55 (Homo sapiens, UniProt Q9Y2T6); experiment: GPR55 agonists via beta-arrestin recruitment, primary screen, imaging, U2OS cells, beta-arrestin-GFP redistribution (AID 1961); type: functional
Sequence of G-protein coupled receptor 55 (Q9Y2T6 whole entry): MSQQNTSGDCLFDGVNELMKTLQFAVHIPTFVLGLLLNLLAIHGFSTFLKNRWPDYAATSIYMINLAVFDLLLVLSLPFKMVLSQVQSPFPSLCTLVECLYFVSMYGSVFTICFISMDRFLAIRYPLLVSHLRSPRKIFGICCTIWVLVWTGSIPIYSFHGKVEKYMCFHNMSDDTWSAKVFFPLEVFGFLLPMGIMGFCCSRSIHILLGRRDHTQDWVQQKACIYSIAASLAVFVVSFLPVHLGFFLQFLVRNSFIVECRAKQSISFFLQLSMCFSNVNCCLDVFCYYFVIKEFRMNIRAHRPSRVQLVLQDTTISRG

Streptokinase A = target: T2, Streptokinase A (Streptococcus pyogenes serotype M1, UniProt P10520); experiment: S. pyogenes streptokinase expression inhibitors, potency, dose response, plasminogen activation absorbance, OD405 (AID 1914); type: functional, Streptococcus pyogenes M1 GAS;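 further: secreted streptokinase activity via plasminogen activation per viability signal from cell pellet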
T2 sequence (P10520 whole entry): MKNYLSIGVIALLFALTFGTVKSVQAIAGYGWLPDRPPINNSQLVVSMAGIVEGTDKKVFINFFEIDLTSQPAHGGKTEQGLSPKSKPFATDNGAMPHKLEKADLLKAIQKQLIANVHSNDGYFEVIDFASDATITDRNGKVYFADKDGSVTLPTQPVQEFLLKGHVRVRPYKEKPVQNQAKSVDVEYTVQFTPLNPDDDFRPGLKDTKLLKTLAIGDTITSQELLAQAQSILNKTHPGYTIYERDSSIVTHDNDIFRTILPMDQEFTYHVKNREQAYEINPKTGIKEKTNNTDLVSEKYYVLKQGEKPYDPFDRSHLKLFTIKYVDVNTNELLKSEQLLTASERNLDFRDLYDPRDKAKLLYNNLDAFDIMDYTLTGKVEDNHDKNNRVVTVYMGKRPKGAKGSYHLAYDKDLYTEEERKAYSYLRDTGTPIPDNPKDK

[9] = cytotoxicity toward NIH3T3 fibroblasts, dose response, counter-screen, cell-based, ATP luminescence, mouse fibroblasts (AID 2010); type: functional;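 further: cells exposed to compound for about 90 hours before reading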
[10] = NIH-3T3 fibroblast cytotoxicity, dose response, cytotoxicity control, cell-based, fluorescence, Alamar Blue, secondary assay (AID 2327); type: functional;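 further: NIH-3T3 mouse fibroblasts cultured with fluconazole at 8 µg/mL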
[11] = target: T3, Serine/threonine-protein phosphatase (Candida dubliniensis (strain CD36 / CBS 7987 / NCPF 3949 / NRRLY-17841) (Yeast), UniProt B9W6M3); experiment: calcineurin pathway inhibitors in yeast reporter, dose response, S. cerevisiae, CDRE-lacZ, luminescence, secondary (AID 2388); type: functional, cell-based;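 further: yeast reporter cells carrying a calcineurin-responsive lacZ construct stimulated with calcium chloride; luminescent beta-galactosidase reporter signal in whole cells rather than isolated phosphatase activity; potency for inhibition where a drop in reporter signal means calcineurin blockade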
T3 sequence (B9W6M3 whole entry): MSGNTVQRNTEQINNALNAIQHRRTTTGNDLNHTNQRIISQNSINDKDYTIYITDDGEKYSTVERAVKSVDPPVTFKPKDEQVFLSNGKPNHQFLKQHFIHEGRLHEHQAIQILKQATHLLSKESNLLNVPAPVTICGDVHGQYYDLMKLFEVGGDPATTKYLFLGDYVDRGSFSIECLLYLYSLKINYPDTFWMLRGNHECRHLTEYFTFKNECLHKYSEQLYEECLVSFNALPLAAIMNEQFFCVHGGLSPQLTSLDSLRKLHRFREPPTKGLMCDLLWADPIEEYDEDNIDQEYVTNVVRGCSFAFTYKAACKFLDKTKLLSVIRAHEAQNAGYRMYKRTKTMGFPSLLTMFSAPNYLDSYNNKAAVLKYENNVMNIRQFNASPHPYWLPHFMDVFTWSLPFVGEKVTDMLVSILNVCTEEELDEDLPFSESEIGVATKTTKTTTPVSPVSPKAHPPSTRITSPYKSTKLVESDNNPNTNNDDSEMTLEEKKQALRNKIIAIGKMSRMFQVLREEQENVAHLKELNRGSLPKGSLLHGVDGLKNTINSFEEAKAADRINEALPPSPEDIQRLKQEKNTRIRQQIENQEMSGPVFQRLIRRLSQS

[12] = system: Streptococcus sp. 'group A'; experiment: growth inhibition of control SK(-) GAS strain, dose response, counter-screen for streptokinase expression inhibitor project, luminescence, kanamycin, BacTiterGlo, confirmation (AID 1900); type: functional, organism-based
INS1 = experiment: beta cell apoptosis inhibitors, cytokine rescue, dose response, luminescence, retest (AID 449756); type: functional, cell-based; conditions: Rattus norvegicus;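 further: cell death triggered by IL-1 beta plus TNF-alpha plus IFN-gamma mixture; protective hits raise ATP signal compared with cytokine alone wells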
[13] = luciferase reporter signal reduction – luminescence, H4-C neuroglioblastoma cells, dose response (AID 2458); type: functional, cell-based;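 further: H4 neuroglioblastoma cells stably carrying a luciferase reporter gene fusion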
[14] = inhibitors of intracellular T. cruzi replication, confirmation, NIH3T3 host cells, beta-gal luminescence (AID 2044); type: functional, cell-based;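 further: intracellular parasites grown in NIH/3T3 mouse fibroblasts as host cells; luminescent beta-galactosidase reporter signal from transgenic T. cruzi replicating inside host cells; inhibitors lower the luminescence signal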
[15] = target: Lysosomal acid glucosylceramidase (Homo sapiens, UniProt P04062); experiment: Dose response cell-based high throughput screening assay to identify enhancers of beta-glucosidase activity. [Related pubchem assays: 784 ]; type: functional
Sequence of Lysosomal acid glucosylceramidase (P04062 whole entry): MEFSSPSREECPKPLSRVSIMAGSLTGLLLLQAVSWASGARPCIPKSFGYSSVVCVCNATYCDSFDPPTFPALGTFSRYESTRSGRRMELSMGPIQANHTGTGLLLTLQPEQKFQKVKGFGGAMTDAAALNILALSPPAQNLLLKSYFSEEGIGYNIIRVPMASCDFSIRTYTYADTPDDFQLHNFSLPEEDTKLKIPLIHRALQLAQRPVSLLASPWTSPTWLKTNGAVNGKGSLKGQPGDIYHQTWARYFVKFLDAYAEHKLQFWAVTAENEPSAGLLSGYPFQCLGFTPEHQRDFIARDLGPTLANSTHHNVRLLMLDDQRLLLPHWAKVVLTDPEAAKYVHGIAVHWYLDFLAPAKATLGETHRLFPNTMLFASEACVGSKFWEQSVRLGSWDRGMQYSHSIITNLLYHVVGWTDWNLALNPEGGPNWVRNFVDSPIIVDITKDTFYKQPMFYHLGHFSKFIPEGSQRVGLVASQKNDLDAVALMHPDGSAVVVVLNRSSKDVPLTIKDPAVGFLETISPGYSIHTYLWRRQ

[16] = target: T4, Alkaline phosphatase, tissue-nonspecific isozyme (Homo sapiens, UniProt P05186)
T4 sequence (P05186 whole entry): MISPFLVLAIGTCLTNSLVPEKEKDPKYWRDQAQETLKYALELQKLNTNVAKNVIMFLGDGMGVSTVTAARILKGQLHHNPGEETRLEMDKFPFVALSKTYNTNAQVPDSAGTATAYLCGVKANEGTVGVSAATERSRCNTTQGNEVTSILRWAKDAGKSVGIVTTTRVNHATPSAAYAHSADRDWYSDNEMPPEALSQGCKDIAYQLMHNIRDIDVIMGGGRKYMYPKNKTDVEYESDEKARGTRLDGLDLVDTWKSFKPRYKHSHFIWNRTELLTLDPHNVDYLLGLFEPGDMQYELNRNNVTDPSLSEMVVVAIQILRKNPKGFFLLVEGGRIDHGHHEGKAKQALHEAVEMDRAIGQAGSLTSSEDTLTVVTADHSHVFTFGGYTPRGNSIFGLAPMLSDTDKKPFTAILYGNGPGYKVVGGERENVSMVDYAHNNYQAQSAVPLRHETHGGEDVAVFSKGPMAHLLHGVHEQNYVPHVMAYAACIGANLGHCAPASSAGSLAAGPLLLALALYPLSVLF

Trypanosoma cruzi = experiment: growth inhibition of intracellular Trypanosoma cruzi, dose response, cell-based, plate reader, dry powder, set 3 (AID 493197); type: functional

For `COc1ccccc1C(=O)Oc1cc(N)n(S(=O)(=O)c2ccc(C)cc2)n1`, the IC50 (Aminopeptidase N) was 99.9 µM (active), the IC50 [1] was > 50 µM (not active) and the IC50 [2] was > 50 µM (not active).
With `CCCc1cc(C(=O)Nc2cc(OC)c(Cl)cc2OC)no1` the EC50 [3] was 0.00815 µM (active).
With `CC1CCN(Cc2c(C(=O)N/N=C/c3cc(Br)ccc3O)nnn2-c2nonc2N)CC1` the EC50 [4] was 0.622 µM (active), the EC50 [5] was > 12 µM (not active) and the EC50 (Streptococcus) was 8.29 µM (active). The EC50 [6] was > 160 µM (inactive), the EC50 (cells) was 0.982 µM (active) and the EC50 [7] was < 0.1 µM (active). The EC50 [8] was 1.63 µM (active), the EC50 (Streptokinase A) was 40.3 µM (inconclusive) and the EC50 [9] was 5.24 µM (active). The EC50 [10] was 35.2 µM (inconclusive), the EC50 [11] was > 180 µM (inactive) and the EC50 [12] was 4.79 µM (active). For the same compound, the AC50 (INS1) was 0.365 µM (active), the EC50 [13] was 1.79 µM (active) and the EC50 [14] was 0.556 µM (active).
With `CC(C)n1c(S)nc2c1c(=O)[nH]c(=O)n2C` the EC50 [15] was > 50 µM (not active).
In the case of `CCC(C)N1CC(=O)C(c2nc3ccccc3[nH]2)=C1N` (configuration not stated), the EC50 [16] is reported as 98.9 µM (not active).
In the case of `CCCN1CCC(N2CCCC(C(=O)N(C)CCc3ccc(OC)c(OC)c3)C2)CC1` (configuration not stated), the AC50 (Trypanosoma cruzi) is reported as 16.4 µM (active).
